From patent US20110144159A1, “ETHER BENZYLIDENE PIPERIDINE ARYL CARBOXAMIDE COMPOUNDS USEFUL AS FAAH INHIBITORS” (Pfizer Inc, priority 2008, published 2011)

Target: T1, Human FAAH (Homo sapiens, UniProt O00519)
T1 construct: made in house
T1 sequence (O00519 32-579 limits assumed): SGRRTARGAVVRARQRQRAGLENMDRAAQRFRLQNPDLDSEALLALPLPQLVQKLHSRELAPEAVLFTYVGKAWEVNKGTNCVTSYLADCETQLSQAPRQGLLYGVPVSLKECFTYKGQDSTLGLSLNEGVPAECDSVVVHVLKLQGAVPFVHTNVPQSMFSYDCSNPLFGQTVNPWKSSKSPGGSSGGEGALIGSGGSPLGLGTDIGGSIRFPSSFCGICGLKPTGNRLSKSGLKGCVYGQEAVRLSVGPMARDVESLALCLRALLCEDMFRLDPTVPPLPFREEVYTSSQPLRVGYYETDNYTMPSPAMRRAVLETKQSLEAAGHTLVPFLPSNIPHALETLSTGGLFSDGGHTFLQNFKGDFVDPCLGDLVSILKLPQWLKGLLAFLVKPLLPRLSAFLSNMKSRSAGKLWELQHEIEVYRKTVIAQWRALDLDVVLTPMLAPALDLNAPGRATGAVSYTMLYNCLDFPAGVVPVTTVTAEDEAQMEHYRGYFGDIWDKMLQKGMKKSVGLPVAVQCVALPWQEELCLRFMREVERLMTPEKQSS
Assay: FAAH assay (glutamate dehydrogenase-coupled, oleamide substrate, absorbance at 340 nm)
Assay type: biochemical
Details: irreversible inhibition potency
Description: A FAAH assay may be carried out in 384-well clear polystyrene plates in a total volume of 50 μl per well. All percents are by volume. To each well was placed the reaction mixture (40 μl) containing 1-4 nM FAAH, 50 mM NaPi, pH 7.4, 3 mM α-ketoglutarate, 0.15 mM NADH, 7.5 U/ml glutamate dehydrogenase, 2 mM ADP, 1 mM EDTA, and 0.1% Triton X-100 (The concentration shown for each component was the final concentration in the assay). To this mixture was added 5 μl of a compound of Examples 1 to 20 at various concentrations prepared in 50% DMSO (or 5 μl 50% DMSO for controls). This was immediately followed by the addition of 5 μl oleamide (500 μM) dissolved in 75% EtOH/25% DMSO and the reaction mixture was mixed for 1.5 min. The final concentrations of DMSO and EtOH in the assay are each 7.5%. The reactions was then incubated at 30° C. and the absorbance at 340 nm was collected over a period of 90 min with readings taken in 30-second intervals using SpectraMax Plus^384 Microplate Spectrophotometer (Molecular Devices, Sunnyvale, Calif.). Human FAAH used in the assay was prepared as described in the patent application WO 2006/067613. The purity of the enzyme used was greater than 98% based on an analysis by SDS-polyacrylamide gel electrophoresis followed by Coomassie Blue staining.
Initial velocity data (V) is obtained from the slopes of the initial progressive curves. They are plotted as a function of substrate concentration and fit to the Michaelis-Menten equation (1) using Prism (GraphPad Software, Inc., San Diego, Calif.) software to obtain Km and Vmax values.
To obtain potencies of irreversible inhibitors, progressive curves consistent with first order inhibition kinetics (two-step irreversible inhibition mechanism) are fit to equation (2) by nonlinear least squares regressions to determine kobs values at each inhibitor concentration, where [P]t is the absorbance at time t, V0 is a constant related to the steady state rate of the uninhibited reaction, and kobs is the first order rate constant for enzyme inactivation. The inhibitor dissociation constant (Ki) and the first order rate
constant of enzyme inactivation at infinite inhibitor concentration (kinact) are then obtained by fitting the kobs vs. [I] curves to equation (3).

hFAAH KInact/K [M⁻¹ s⁻¹]	Compound
2020	CCOc1cccc(C=C2CCN(C(=O)Nc3cccnc3)CC2)c1 [Example 1, 4-(3-ethoxybenzylidene)-N-pyridin-3-ylpiperidine-1-carboxamide]
973	COc1cccc(C=C2CCN(C(=O)Nc3cccnc3)CC2)c1 [Example 2, 4-(3-methoxybenzylidene)-N-pyridin-3-ylpiperidine-1-carboxamide]
1480	COc1cccc(C=C2CCN(C(=O)Nc3cccnn3)CC2)c1 [Example 6, 4-(3-methoxybenzylidene)-N-pyridazin-3-ylpiperidine-1-carboxamide]
1220	O=C(Nc1cccnc1)N1CCC(=Cc2cccc(OC3CCCCC3)c2)CC1 [Example 7, 4-[3-(cyclohexyloxy)benzylidene]-N-pyridin-3-ylpiperidine-1-carboxamide]
324	O=C(Nc1cccnc1)N1CCC(=Cc2cccc(OC3CCC3)c2)CC1 [Example 8, 4-[3-(cyclobutyloxy)benzylidene]-N-pyridin-3-ylpiperidine-1-carboxamide]
1900	O=C(Nc1cccnc1)N1CCC(=Cc2cccc(OC3CCCC3)c2)CC1 [Example 11, 4-[3-(cyclopentyloxy)benzylidene]-N-pyridin-3-ylpiperidine-1-carboxamide]
907	O=C(Nc1cccnc1)N1CCC(=Cc2cccc(OC3CCCOC3)c2)CC1 (stereo not shown) [Example 12, N-pyridin-3-yl-4-[3-(tetrahydro-2H-pyran-3-yloxy)benzylidene]piperidine-1-carboxamide]
718	CCC(CC)Oc1cccc(C=C2CCN(C(=O)Nc3cccnc3)CC2)c1 [Example 14, 4-[3-(1-ethylpropoxy)benzylidene]-N-pyridin-3-ylpiperidine-1-carboxamide]
216	CCC(CC)Oc1cccc(C=C2CCN(C(=O)Nc3cccnc3)CC2)c1 [Example 15, 4-[3-(1-ethylpropoxy)benzylidene]-N-pyridin-3-ylpiperidine-1-carboxamide]
1020	O=C(Nc1cccnc1)N1CCC(=Cc2cccc(OC3CCCCCC3)c2)CC1 [Example 18, 4-[3-(cycloheptyloxy)benzylidene]-N-pyridin-3-ylpiperidine-1-carboxamide]
451	O=C(Nc1cccnc1)N1CCC(=Cc2cccc(OC3CCOC3)c2)CC1 (stereo not shown) [Example 20, N-pyridin-3-yl-4-[3-(tetrahydrofuran-3-yloxy)benzylidene]piperidine-1-carboxamide]
939	C=CC(C)Oc1cccc(C=C2CCN(C(=O)Nc3cccnc3)CC2)c1 (stereo not shown) [Example 25, 4-{3-[(1-methylprop-2-en-1-yl)oxy]benzylidene}-N-pyridin-3-ylpiperidine-1-carboxamide]
1300	O=C(Nc1cccnc1)N1CCC(=Cc2cccc(OC3CC3)c2)CC1 [Example 29, 4-[3-(cyclopropyloxy)benzylidene]-N-pyridin-3-ylpiperidine-1-carboxamide]

Continued, compound first:

Compound	hFAAH KInact/K [M⁻¹ s⁻¹]
4-(3-{[trans-4-(cyanomethyl)cyclohexyl]methoxy}benzylidene)-N-pyridazin-3-ylpiperidine-1-carboxamide [Example 96]	1470
4-[3-(1-methyl-2-phenoxyethoxy)benzylidene]-N-pyridazin-3-ylpiperidine-1-carboxamide [Example 90]	3971
4-{3-[2-(3-methoxyphenyl)ethoxy]benzylidene}-N-pyridazin-3-ylpiperidine-1-carboxamide [Example 85]	7770
4-{3-[(2,4-dimethyl-1,3-thiazol-5-yl)methoxy]benzylidene}-N-pyridazin-3-ylpiperidine-1-carboxamide [Example 69]	331
4-{3-[(2-methylpyridin-3-yl)methoxy]benzylidene}-N-pyridazin-3-ylpiperidine-1-carboxamide [Example 59]	328
O=C(Nc1cccnn1)N1CCC(=Cc2ccc3c(c2)OCO3)CC1 [Example 3, 4-(1,3-benzodioxol-5-ylmethylene)-N-pyridazin-3-ylpiperidine-1-carboxamide]	2870
O=C(Nc1cccnn1)N1CCC(=Cc2ccc3c(c2)OCCO3)CC1 [Example 4, 4-(2,3-dihydro-1,4-benzodioxin-6-ylmethylene)-N-pyridazin-3-ylpiperidine-1-carboxamide]	2770
O=C(Nc1cccnn1)N1CCC(=Cc2cccc(OC(F)(F)F)c2)CC1 [Example 5, N-pyridazin-3-yl-4-[3-(trifluoromethoxy)benzylidene]piperidine-1-carboxamide]	2250
O=C(Nc1cccnn1)N1CCC(=Cc2cccc(OC3CCC3)c2)CC1 [Example 9, 4-[3-(cyclobutyloxy)benzylidene]-N-pyridazin-3-ylpiperidine-1-carboxamide]	531
O=C(Nc1cccnn1)N1CCC(=Cc2cccc(OC3CCCCC3)c2)CC1 [Example 10, 4-[3-(cyclohexyloxy)benzylidene]-N-pyridazin-3-ylpiperidine-1-carboxamide]	3300
O=C(Nc1cccnn1)N1CCC(=Cc2cccc(OC3CCCC3)c2)CC1 [Example 13, 4-[3-(cyclopentyloxy)benzylidene]-N-pyridazin-3-ylpiperidine-1-carboxamide]	2570
O=C(Nc1cccnn1)N1CCC(=Cc2cccc(OC3CCCCCC3)c2)CC1 [Example 16, 4-[3-(cycloheptyloxy)benzylidene]-N-pyridazin-3-ylpiperidine-1-carboxamide]	2190
O=C(Nc1cccnn1)N1CCC(=Cc2cccc(OC3CCOC3)c2)CC1 (stereo not shown) [Example 17, N-pyridazin-3-yl-4-[3-(tetrahydrofuran-3-yloxy)benzylidene]piperidine-1-carboxamide]	371
O=C(Nc1cccnn1)N1CCC(=Cc2cccc(OC3CCCOC3)c2)CC1 (stereo not shown) [Example 19, N-pyridazin-3-yl-4-[3-(tetrahydro-2H-pyran-3-yloxy)benzylidene]piperidine-1-carboxamide]	783
CCC(C)Oc1cccc(C=C2CCN(C(=O)Nc3cccnn3)CC2)c1 (stereo not shown) [Example 21, 4-(3-sec-butoxybenzylidene)-N-pyridazin-3-ylpiperidine-1-carboxamide]	973
CCC(C)Oc1cccc(C=C2CCN(C(=O)Nc3cccnn3)CC2)c1 (stereo not shown) [Example 22, 4-(3-sec-butoxybenzylidene)-N-pyridazin-3-ylpiperidine-1-carboxamide]	1260
CCC(C)Oc1cccc(C=C2CCN(C(=O)Nc3cccnc3)CC2)c1 (stereo not shown) [Example 23, 4-(3-sec-butoxybenzylidene)-N-pyridin-3-ylpiperidine-1-carboxamide]	555
CCC(C)Oc1cccc(C=C2CCN(C(=O)Nc3cccnc3)CC2)c1 (stereo not shown) [Example 24, 4-(3-sec-butoxybenzylidene)-N-pyridin-3-ylpiperidine-1-carboxamide]	758
C=CC(C)Oc1cccc(C=C2CCN(C(=O)Nc3cccnn3)CC2)c1 (stereo not shown) [Example 26, 4-{3-[(1-methylprop-2-en-1-yl)oxy]benzylidene}-N-pyridazin-3-ylpiperidine-1-carboxamide]	<10.0
CCC(CC)Oc1cccc(C=C2CCN(C(=O)Nc3cccnn3)CC2)c1 [Example 27, 4-[3-(1-ethylpropoxy)benzylidene]-N-pyridazin-3-ylpiperidine-1-carboxamide]	1030
CCC(CC)Oc1cccc(C=C2CCN(C(=O)Nc3cccnn3)CC2)c1 [Example 28, 4-[3-(1-ethylpropoxy)benzylidene]-N-pyridazin-3-ylpiperidine-1-carboxamide]	303
